Data published in patent US20140296174A1, “SILK-BASED MULTIFUNCTIONAL BIOMEDICAL PLATFORM” (TUFTS UNIVERSITY, priority 2011, published 2014).

Legend:
[1] = silk microspheres, depending on processing pH; cited from earlier work
[2] = Doxorubicin storage stability in silk films/MPAs versus solution (fluorescence); type: physicochemical; details: 3 weeks at −20° C. and 60° C.; excitation 430, emission 550
Description: Silk films for degradation and stability studies were prepared by casting of 6% (w/v) silk solution containing 1.0 mg/mL doxorubicin on a patterned mold. After drying at ambient conditions for 48 hours the samples were removed and vapor annealed for 24 hours as previously described (Jin et al., 2005).
After 3 weeks, the silk films were degraded with 10 mg/mL proteinase k for 6 hours, and doxorubicin concentration for all samples was determined by comparing fluorescence to a standard curve of known concentrations (excitation=430, emission=550).
The silk DxR-MPA was evaluated at different time points for optical performance and drug content eluted by measuring absorbance at 495 nm and comparing measured values to a standard curve (FIGS. 11A & 33). […] The doxorubicin-loaded silk-MPAs were stored at −20° C.

[3] = Binding of doxorubicin to silk carrier; type: physicochemical; details: typically
Description: In addition to having properties which make silk well suited to drug delivery in general, silk is uniquely suited to deliver doxorubicin, as we have observed that doxorubicin interacts strongly with the silk. […] The interaction between the silk and the doxorubicin also results in a large fraction (typically more than 50%) of the total doxorubicin dose is bound to the carrier. In some embodiments, therefore, the carrier may be proteolytically degraded to enhance release the bound doxorubicin. This provide an opportunity to design protease-triggered drug release systems. […] Degradation-mediated drug release from silk biomaterials can be used to design systems that provide drug locally proportionately to disease progression: aggressive disease/increased proteolysis would degrade the silk carrier more rapidly, releasing larger doses of drug than in healthy tissue.

SMILES | fraction released [1] | doxorubicin fluorescence after storage [2] | fraction of the total doxorubicin dose bound to the carrier [3]
CN(C)c1ccc(C(=C2C=CC(=[N+](C)C)C=C2)c2ccc(N(C)C)cc2)cc1 [crystal violet] | 25-60% |  | 
COc1cccc2c1C(=O)c1c(O)c3c(c(O)c1C2=O)C[C@@](O)(C(=O)CO)C[C@@H]3O[C@H]1C[C@H](N)[C@H](O)[C@H](C)O1 [doxorubicin] |  | decreases | more than 50%
